Laboratory results: PubChem BioAssay (NCI)
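How tested: cells in 96-well plates exposed to compound for 48 hours at five concentrations. TGI: total growth inhibition.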

Experiments:
Test in all cases: NCI-60 cell line screen, 48 h
M14 melanoma = tested on: M14 melanoma
HCT-15 colon = tested on: HCT-15 colon
SK-MEL-28 melanoma = tested on: SK-MEL-28 melanoma
NCI-H522 lung = tested on: NCI-H522 lung
HCT-116 colon = tested on: HCT-116 colon
HOP-62 NSCLC = tested on: HOP-62 NSCLC
PC-3 prostate = tested on: PC-3 prostate
NCI-H226 lung = tested on: NCI-H226 lung
DU-145 prostate = tested on: DU-145 prostate
SW-620 colon = tested on: SW-620 colon
NCI/ADR-RES ovarian = tested on: NCI/ADR-RES ovarian
SNB-19 CNS = tested on: SNB-19 CNS
UO-31 renal = tested on: UO-31 renal
SK-OV-3 ovarian = tested on: SK-OV-3 ovarian
A549 NSCLC = tested on: A549 NSCLC
HCC-2998 colon = tested on: HCC-2998 colon
LOX IMVI melanoma = tested on: LOX IMVI melanoma
OVCAR-3 ovarian = tested on: OVCAR-3 ovarian
MCF7 breast = tested on: MCF7 breast

Compound	TGI (M14 melanoma)	TGI (HCT-15 colon)	TGI (SK-MEL-28 melanoma)	TGI (NCI-H522 lung)	TGI (HCT-116 colon)	TGI (HOP-62 NSCLC)	TGI (PC-3 prostate)	TGI (NCI-H226 lung)	TGI (DU-145 prostate)	TGI (SW-620 colon)	TGI (NCI/ADR-RES ovarian)	TGI (SNB-19 CNS)	TGI (UO-31 renal)	TGI (SK-OV-3 ovarian)	TGI (A549 NSCLC)	TGI (HCC-2998 colon)	TGI (LOX IMVI melanoma)	TGI (OVCAR-3 ovarian)	TGI (MCF7 breast)
COC(=O)[C@]1(c2cc3ccccc3[nH]2)CC2CN(CC(=O)N(C)OC)C1C1OC(C)(C)OC21 (stereo not given in full)	> 100 µM	> 100 µM	> 100 µM	> 100 µM	> 100 µM	> 100 µM	> 100 µM	> 100 µM	> 100 µM	> 100 µM	> 100 µM	> 100 µM	> 100 µM	> 100 µM	> 100 µM	> 100 µM	> 100 µM	> 100 µM	> 100 µM
CC(C)CCNC(=O)c1ccc(CNC(=O)/C=C/c2ccc(-c3ccccc3[N+](=O)[O-])o2)cc1	> 100 µM	> 100 µM	> 100 µM	–	> 100 µM	60.8 µM	> 100 µM	62.9 µM	> 100 µM	> 100 µM	> 100 µM	> 100 µM	> 100 µM	> 100 µM	> 100 µM	> 100 µM	> 100 µM	> 100 µM	> 100 µM
O=S(=O)(Nc1ccccc1S(=O)(=O)c1ccccc1)c1ccccc1	> 100 µM	> 100 µM	> 100 µM	> 100 µM	> 100 µM	> 100 µM	> 100 µM	> 100 µM	> 100 µM	> 100 µM	> 100 µM	> 100 µM	> 100 µM	> 100 µM	> 100 µM	> 100 µM	> 100 µM	> 100 µM	> 100 µM
O=C1c2c(Br)sc(Br)c2[C@H]2NC(=S)O[C@@H]12	30.5 µM	16.6 µM	29.6 µM	3.74 µM	24.5 µM	34.9 µM	27.7 µM	42.9 µM	30.7 µM	11.3 µM	45.8 µM	50.8 µM	29.8 µM	33.3 µM	46.8 µM	34.8 µM	30.5 µM	20.4 µM	31.8 µM
Cn1ncc2c(NCCc3ccccc3)nc(Cl)nc21	39.7 µM	> 100 µM	76.4 µM	> 100 µM	> 100 µM	81.3 µM	71.8 µM	76.1 µM	> 100 µM	89.1 µM	59.9 µM	> 100 µM	73 µM	71.7 µM	77.4 µM	40.3 µM	> 100 µM	> 100 µM	> 100 µM
C[C@H](CCc1nc(C#N)c(N)o1)[C@H]1CC[C@H]2[C@@H]3[C@@H](O)CC4C[C@@H](O)CC[C@]4(C)[C@H]3C[C@@H](O)[C@]12C (stereo not given in full)	> 75.8 µM	> 93 µM	47.2 µM	18.4 µM	50 µM	> 54.4 µM	49.1 µM	62.9 µM	> 76.3 µM	55 µM	> 100 µM	57.5 µM	61.8 µM	73.8 µM	> 100 µM	36.5 µM	29.2 µM	> 56.9 µM	> 95.4 µM
Cc1ccc(S(=O)(=O)C2=c3ncccc3=C3C(=O)c4ccccc4C(=O)C32)cc1 (stereo not given)	> 100 µM	> 100 µM	> 100 µM	85.3 µM	> 100 µM	9.14 µM	> 100 µM	> 100 µM	> 100 µM	> 100 µM	> 100 µM	79.9 µM	> 100 µM	> 100 µM	> 100 µM	> 100 µM	> 100 µM	> 100 µM	> 100 µM
CCOC(=O)Cn1nc2ccc(Nc3nc4ccccc4nc3C(=O)OCC)cc2n1	> 100 µM	> 100 µM	> 100 µM	> 100 µM	> 100 µM	> 100 µM	> 100 µM	> 100 µM	> 100 µM	> 100 µM	> 100 µM	> 100 µM	> 100 µM	> 100 µM	> 100 µM	> 100 µM	> 100 µM	> 100 µM	> 100 µM
CC(O[Si](C)(C)C(C)(C)C)[C@H](NC(=O)OCC(Cl)(Cl)Cl)C(=O)O (stereo not given in full)	–	> 100 µM	> 100 µM	> 100 µM	> 100 µM	> 100 µM	> 100 µM	> 100 µM	> 100 µM	> 100 µM	> 100 µM	> 100 µM	> 100 µM	> 100 µM	> 100 µM	> 100 µM	–	> 100 µM	> 100 µM
Nc1nc(Nc2ccc(Cl)cc2)sc1C(=O)c1cc2ccccc2oc1=O	> 100 µM	> 100 µM	> 100 µM	–	> 100 µM	42.7 µM	> 100 µM	> 100 µM	> 100 µM	> 100 µM	> 100 µM	> 100 µM	> 100 µM	> 100 µM	> 100 µM	> 100 µM	> 100 µM	38.6 µM	> 100 µM
CC(=O)OC1CC(OC2C(O)CC(OC3C(O)CC(OC4CCC5(C)C(CCC6C5CC(O)C5(C)C(C7=CC(=O)OC7)CCC65O)C4)OC3C)OC2C)OC(C)C1O (stereo not given) (tested in a mixture with another compound)	0.231 µM	0.107 µM	–	0.0275 µM	0.039 µM	0.152 µM	0.123 µM	0.176 µM	0.0377 µM	0.268 µM	0.0732 µM	0.458 µM	0.169 µM	0.162 µM	0.0259 µM	0.463 µM	0.0944 µM	0.0507 µM	0.216 µM
COc1cc(/C=C2\NC(=O)N(/C=C3\C(=O)Oc4ccccc4C3=O)C2=O)ccc1O	> 100 µM	> 100 µM	–	> 100 µM	> 100 µM	> 100 µM	> 100 µM	> 100 µM	> 100 µM	> 100 µM	> 100 µM	> 100 µM	> 100 µM	> 100 µM	> 100 µM	> 100 µM	> 100 µM	–	> 100 µM
C=CCC1(O)c2cccc(O)c2C(=O)c2c(O)cccc21	59.3 µM	47.9 µM	> 100 µM	75.8 µM	57.7 µM	> 100 µM	88 µM	> 100 µM	> 100 µM	> 100 µM	43 µM	–	> 100 µM	–	88.4 µM	43.7 µM	57.2 µM	> 100 µM	> 100 µM
Cc1ccc(C2SC(N)=Nc3c2c(C)nn3C(=O)c2ccncc2)cc1 (stereo not given)	> 10 µM	> 10 µM	> 10 µM	> 10 µM	> 10 µM	> 10 µM	> 10 µM	> 10 µM	> 10 µM	> 10 µM	> 10 µM	> 10 µM	–	> 10 µM	> 10 µM	> 10 µM	> 10 µM	> 10 µM	> 10 µM
Nc1nc(Cl)cc(Nc2ccc3c(c2)CCC3)n1	> 100 µM	> 100 µM	> 100 µM	> 100 µM	> 100 µM	–	> 100 µM	> 100 µM	> 100 µM	> 100 µM	> 100 µM	> 100 µM	> 100 µM	> 100 µM	> 100 µM	> 100 µM	> 100 µM	> 100 µM	> 100 µM
C=CCCCC1(C)CCCCNC1=O (stereo not given)	> 10 µM	> 10 µM	> 10 µM	–	> 10 µM	> 10 µM	> 10 µM	> 10 µM	> 10 µM	> 10 µM	> 10 µM	> 10 µM	> 10 µM	> 10 µM	> 10 µM	> 10 µM	> 10 µM	> 10 µM	> 10 µM
Nc1ncnc2c1ncn2CC(OCP(=O)(O)O)Oc1ccccc1 (stereo not given)	> 100 µM	> 100 µM	> 100 µM	–	> 100 µM	> 100 µM	> 100 µM	> 100 µM	> 100 µM	> 100 µM	> 100 µM	> 100 µM	> 100 µM	> 100 µM	> 100 µM	> 100 µM	> 100 µM	> 100 µM	> 100 µM
CC(=O)OCCn1c(Cc2ccc([N+](=O)[O-])cc2)nn(C(C)=O)c1=O	> 100 µM	> 100 µM	> 100 µM	> 100 µM	> 100 µM	–	> 100 µM	> 100 µM	> 100 µM	> 100 µM	> 100 µM	> 100 µM	> 100 µM	> 100 µM	> 100 µM	> 100 µM	> 100 µM	> 100 µM	> 100 µM
CC(=O)Oc1ccc(-c2cc3ccccc3oc2=O)cc1OC(C)=O	> 100 µM	> 100 µM	> 100 µM	> 100 µM	> 100 µM	> 100 µM	> 100 µM	> 100 µM	> 100 µM	> 100 µM	> 100 µM	> 100 µM	> 100 µM	–	94.7 µM	59.3 µM	> 100 µM	–	> 100 µM
